Assay in all cases: biochemical
Assay [1] addresses T1, SIK1 (Homo sapiens, UniProt P57059).
T1 construct: purchased Carna Biosciences 02-131
To be noted: 33P radioactive SIK kinase assay, AMARA peptide, 10 μM ATP; read-out: SIK1 IC50. A digest of the protocol:
(§1)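 AMARA peptide phosphorylation by SIK1–3 is quantified through ^33P uptake from a labeled/unlabeled ATP blend. Staurosporine at 10 μM final defines full inhibition, 1% DMSO the uninhibited signal. Quench uses phosphoric acid; counting follows filter capture.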

For assay [2], the target named is T2, SIK2 (Homo sapiens, UniProt Q9H0K1).
T2 construct: purchased ThermoFisher Scientific PV4792
T2 sequence (Q9H0K1 whole entry): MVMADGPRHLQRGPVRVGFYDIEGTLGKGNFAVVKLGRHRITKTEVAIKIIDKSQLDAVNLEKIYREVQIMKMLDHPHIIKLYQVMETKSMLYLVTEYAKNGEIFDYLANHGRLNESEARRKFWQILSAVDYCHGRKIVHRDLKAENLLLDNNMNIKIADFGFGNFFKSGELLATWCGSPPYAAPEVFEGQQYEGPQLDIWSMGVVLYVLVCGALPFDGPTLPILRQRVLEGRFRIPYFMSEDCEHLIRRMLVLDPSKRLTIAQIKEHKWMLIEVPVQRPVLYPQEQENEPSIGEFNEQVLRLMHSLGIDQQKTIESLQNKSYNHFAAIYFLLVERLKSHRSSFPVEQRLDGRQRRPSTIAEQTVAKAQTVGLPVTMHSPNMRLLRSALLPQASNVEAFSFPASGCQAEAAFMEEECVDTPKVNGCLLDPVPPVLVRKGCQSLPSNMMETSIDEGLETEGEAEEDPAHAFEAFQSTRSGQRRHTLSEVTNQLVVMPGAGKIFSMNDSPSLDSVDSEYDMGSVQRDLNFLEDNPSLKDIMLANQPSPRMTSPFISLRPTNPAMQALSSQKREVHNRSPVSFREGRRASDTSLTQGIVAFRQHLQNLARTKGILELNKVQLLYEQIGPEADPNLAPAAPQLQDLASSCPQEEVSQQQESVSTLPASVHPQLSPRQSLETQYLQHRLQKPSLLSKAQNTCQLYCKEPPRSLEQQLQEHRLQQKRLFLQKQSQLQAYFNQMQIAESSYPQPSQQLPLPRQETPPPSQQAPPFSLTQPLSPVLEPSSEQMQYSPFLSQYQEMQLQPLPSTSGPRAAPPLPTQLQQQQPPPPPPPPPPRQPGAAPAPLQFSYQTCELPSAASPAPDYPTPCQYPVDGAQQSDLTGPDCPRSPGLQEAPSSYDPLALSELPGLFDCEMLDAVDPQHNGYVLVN
To be noted: 33P radioactive SIK kinase assay, AMARA peptide, 10 μM ATP. A digest of the protocol: as §1

The target of assay [3] is T3, SIK3 (Homo sapiens, UniProt Q9Y2K2).
T3 construct: purchased SignalChem S12-11G-100
T3 sequence (Q9Y2K2 whole entry): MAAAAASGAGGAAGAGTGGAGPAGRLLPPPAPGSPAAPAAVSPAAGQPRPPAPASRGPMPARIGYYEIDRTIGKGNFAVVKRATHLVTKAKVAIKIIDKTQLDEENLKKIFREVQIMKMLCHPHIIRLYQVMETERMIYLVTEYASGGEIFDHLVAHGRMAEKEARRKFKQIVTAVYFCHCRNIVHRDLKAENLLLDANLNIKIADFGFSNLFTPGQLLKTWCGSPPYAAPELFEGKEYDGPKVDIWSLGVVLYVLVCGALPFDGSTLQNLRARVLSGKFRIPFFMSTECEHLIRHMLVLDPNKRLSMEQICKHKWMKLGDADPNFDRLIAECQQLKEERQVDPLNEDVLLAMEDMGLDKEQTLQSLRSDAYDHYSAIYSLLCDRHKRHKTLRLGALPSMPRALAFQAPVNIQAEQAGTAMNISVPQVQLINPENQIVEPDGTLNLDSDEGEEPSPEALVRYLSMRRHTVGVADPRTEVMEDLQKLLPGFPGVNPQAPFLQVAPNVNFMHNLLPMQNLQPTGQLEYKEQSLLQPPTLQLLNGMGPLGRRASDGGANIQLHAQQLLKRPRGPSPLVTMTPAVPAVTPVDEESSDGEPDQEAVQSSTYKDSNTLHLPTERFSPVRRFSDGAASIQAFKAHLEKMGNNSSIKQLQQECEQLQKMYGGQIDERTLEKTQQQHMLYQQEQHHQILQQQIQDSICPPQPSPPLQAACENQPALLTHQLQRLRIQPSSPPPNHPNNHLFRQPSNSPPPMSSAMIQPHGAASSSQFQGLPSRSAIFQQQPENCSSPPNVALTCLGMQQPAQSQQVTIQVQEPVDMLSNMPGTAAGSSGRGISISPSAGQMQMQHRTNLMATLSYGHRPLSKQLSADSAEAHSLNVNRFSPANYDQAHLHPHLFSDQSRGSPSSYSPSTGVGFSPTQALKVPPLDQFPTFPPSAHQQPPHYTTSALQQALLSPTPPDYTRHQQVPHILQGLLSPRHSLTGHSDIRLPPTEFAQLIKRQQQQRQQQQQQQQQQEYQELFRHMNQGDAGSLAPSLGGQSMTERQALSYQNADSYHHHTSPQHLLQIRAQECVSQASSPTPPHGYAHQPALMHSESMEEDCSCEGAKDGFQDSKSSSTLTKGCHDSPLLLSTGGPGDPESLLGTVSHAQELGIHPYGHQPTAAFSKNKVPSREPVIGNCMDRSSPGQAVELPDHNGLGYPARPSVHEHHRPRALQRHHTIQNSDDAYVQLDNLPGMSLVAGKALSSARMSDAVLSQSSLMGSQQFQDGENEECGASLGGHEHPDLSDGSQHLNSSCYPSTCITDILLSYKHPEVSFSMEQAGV
Summed up: as §1

In general, IC50 refers to the concentration at which inhibition is half-maximal.

T1 sequence (P57059 whole entry): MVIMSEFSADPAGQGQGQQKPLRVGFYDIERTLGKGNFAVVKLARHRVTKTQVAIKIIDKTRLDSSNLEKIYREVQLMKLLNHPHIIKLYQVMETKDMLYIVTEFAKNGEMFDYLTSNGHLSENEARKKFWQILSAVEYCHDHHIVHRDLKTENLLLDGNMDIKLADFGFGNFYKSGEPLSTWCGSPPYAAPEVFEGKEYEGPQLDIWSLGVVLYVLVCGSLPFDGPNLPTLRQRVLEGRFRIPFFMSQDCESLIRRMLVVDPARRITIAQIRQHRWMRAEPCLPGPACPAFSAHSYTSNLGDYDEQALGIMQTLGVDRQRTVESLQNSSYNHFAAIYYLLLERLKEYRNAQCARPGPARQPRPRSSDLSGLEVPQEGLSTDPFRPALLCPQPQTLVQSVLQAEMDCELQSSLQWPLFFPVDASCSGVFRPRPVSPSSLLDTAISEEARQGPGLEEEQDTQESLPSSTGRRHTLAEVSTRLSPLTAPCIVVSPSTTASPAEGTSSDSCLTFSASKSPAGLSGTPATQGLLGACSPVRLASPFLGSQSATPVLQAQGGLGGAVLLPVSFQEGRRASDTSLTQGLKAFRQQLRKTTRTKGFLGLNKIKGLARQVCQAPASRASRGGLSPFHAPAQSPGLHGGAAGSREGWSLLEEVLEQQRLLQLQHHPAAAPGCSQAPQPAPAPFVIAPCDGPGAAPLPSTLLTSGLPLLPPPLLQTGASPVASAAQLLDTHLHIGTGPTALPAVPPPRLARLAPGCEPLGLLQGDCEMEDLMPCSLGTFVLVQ

Regarding `COc1cc(-n2cnc3cc(-c4cnn(C)c4)ccc32)cc(OC)c1C(=O)N1CC(N(C)C)C1` [compound 185, [2,6-dimethoxy-4-[5-(1-methylpyrazol-4-yl)benzimidazol-1-yl]phenyl]-[3-(dimethylamino)azetidin-1-yl]methanone], the results for the IC50 in assay [1], in assay [2] and in assay [3] were 100 to 500 nM, 100 to 500 nM and greater than 500 nM, respectively.
On to `COc1cc(-n2cnc3cc(-c4cnn(C)c4)ccc32)cc(OC)c1C(=O)N1CC(OCc2ccccc2)C1` [compound 186, (3-benzyloxyazetidin-1-yl)-[2,6-dimethoxy-4-[5-(1-methylpyrazol-4-yl)benzimidazol-1-yl]phenyl]methanone], for which the IC50 lay in the range of 10 to 100 nM in assay [1], 100 to 500 nM in assay [2] and 100 to 500 nM in assay [3].
In the case of `COc1cc(-n2cnc3cc(-c4cnn(C)c4)ccc32)cc(OC)c1C(=O)N1CCC1c1ccccc1` (stereo not drawn) [compound 187, [2,6-dimethoxy-4-[5-(1-methylpyrazol-4-yl)benzimidazol-1-yl]phenyl]-(2-phenylazetidin-1-yl)methanone], the IC50 in assay [1], in assay [2] and in assay [3] was greater than 500 nM throughout.
For the compound `COc1cc(-n2cnc3cc(-c4cnn(C)c4)ccc32)cc(OC)c1C(=O)N1CC(N2CCOCC2)C1` [compound 188, [2,6-dimethoxy-4-[5-(1-methylpyrazol-4-yl)benzimidazol-1-yl]phenyl]-(3-morpholinoazetidin-1-yl)methanone], the concentration for half-maximal inhibition (IC50) in assay [1], in assay [2] and in assay [3] was greater than 500 nM throughout.
Take `COc1cc(-n2cnc3cc(-c4cnn(C)c4)ccc32)cc(OC)c1C(=O)N1C(C)CC1(C)C` (stereo not drawn) [compound 189, [2,6-dimethoxy-4-[5-(1-methylpyrazol-4-yl)benzimidazol-1-yl]phenyl]-(2,2,4-trimethylazetidin-1-yl)methanone]: the IC50 in assay [1], in assay [2] and in assay [3] was greater than 500 nM throughout.
For `COc1cc(-n2cnc3cc(-c4cnn(C)c4)ccc32)cc(OC)c1C(=O)N1CC(OC)C1` [compound 190, [2,6-dimethoxy-4-[5-(1-methylpyrazol-4-yl)benzimidazol-1-yl]phenyl]-(3-methoxyazetidin-1-yl)methanone], the concentration for half-maximal inhibition (IC50) in assay [1] was 10 to 100 nM; in assay [2] it was 10 to 100 nM; in assay [3], 100 to 500 nM.
As for `COc1cc(-n2cnc3cc(-c4cnn(C)c4)ccc32)cc(OC)c1C(=O)N1CC(C2CCOCC2)C1` [compound 191, [2,6-dimethoxy-4-[5-(1-methylpyrazol-4-yl)benzimidazol-1-yl]phenyl]-(3-tetrahydropyran-4-ylazetidin-1-yl)methanone], the IC50 in assay [1], in assay [2] and in assay [3] was 100 to 500 nM throughout.
For the compound `COc1cc(-n2cnc3cc(-c4cnn(C)c4)ccc32)cc(OC)c1C(=O)N1CCC1CO` (stereo not drawn) [compound 193, [2,6-dimethoxy-4-[5-(1-methylpyrazol-4-yl)benzimidazol-1-yl]phenyl]-[2-(hydroxymethyl)azetidin-1-yl]methanone], the IC50 in assay [1], in assay [2] and in assay [3] was greater than 500 nM each time.
With `COc1cc(-n2cnc3cc(-c4cnn(C)c4)ccc32)cc(OC)c1C(=O)N1CC2(COC2)C1` [compound 194], the IC50 was 100 to 500 nM in assay [1], 10 to 100 nM in assay [2] and 100 to 500 nM in assay [3].
Take `COc1cc(-n2cnc3cc(-c4cnn(C)c4)ccc32)cc(OC)c1C(=O)N1CC2(C1)CS(=O)(=O)C2` [compound 195, [2,6-dimethoxy-4-[5-(1-methylpyrazol-4-yl)benzimidazol-1-yl]phenyl]-(2,2-dioxo-2λ^6-thia-6-azaspiro[3.3]heptan-6-yl)methanone]: the IC50 in assay [1], in assay [2] and in assay [3] was 100 to 500 nM in each case.
Take `COc1cc(-n2cnc3cc(-c4cnn(C)c4)ccc32)cc(OC)c1C(=O)N1CCC(c2ccccc2)C1` (stereo not drawn) [compound 196, [2,6-dimethoxy-4-[5-(1-methylpyrazol-4-yl)benzimidazol-1-yl]phenyl]-(3-phenylpyrrolidin-1-yl)methanone]: the IC50 in assay [1], in assay [2] and in assay [3] was greater than 500 nM each time.
As to `COc1cc(-n2cnc3cc(-c4cnn(C)c4)ccc32)cc(OC)c1C(=O)N1CCC(F)CC1` [compound 197, [2,6-dimetlioxy-4-[5-(1-methylpyrazol-4-yl)benzimidazol-1-yl]phenyl]-(4-fluoro-1-piperidyl)methanone], the IC50 in assay [1], in assay [2] and in assay [3] was greater than 500 nM throughout.
Turning to `COc1cc(-n2cnc3cc(-c4cnn(C)c4)ccc32)cc(OC)c1C(=O)N1CCC(OC(F)(F)F)CC1` [compound 198, [2,6-dimethoxy-4-[5-(1-methylpyrazol-4-yl)benzimidazol-1-yl]phenyl]-[4-(trifluoromethoxy)-1-piperidyl]methanone], the figures for the IC50 in assay [1], in assay [2] and in assay [3] were 100 to 500 nM, greater than 500 nM and 100 to 500 nM, respectively.
On to `COc1cc(-n2cnc3cc(-c4cnn(C)c4)ccc32)cc(OC(F)F)c1C(=O)NC(C)(C)C` [compound 199, N-tert-butyl-2-(difluoromethoxy)-6-methoxy-4-[5-(1-methylpyrazol-4-yl)benzimidazol-1-yl]benzamide], for which the IC50 in assay [1], in assay [2] and in assay [3] was greater than 500 nM in each case.
In the case of `COc1cc(-c2cnc3cc(-c4cnn(C)c4)ccn23)cc(OC)c1C(=O)NC(C(C)C)C(F)(F)F` (stereo not drawn) [compound 200], the IC50 in assay [1], in assay [2] and in assay [3] was 10 to 100 nM in each case.
On to `COc1cc(-c2cnc3cc(-c4cnn(C)c4)ccn23)cc(OC)c1C(=O)N1CCC(F)(F)C1` [compound 211, (3,3-difluoropyrrolidin-1-yl)-[2,6-dimethoxy-4-[7-(1-methylpyrazol-4-yl)imidazo[1,2-a]pyridin-3-yl]phenyl]methanone], for which the IC50 in assay [1], in assay [2] and in assay [3] was 10 to 100 nM in each case.
In the case of `COc1cc(-c2cnc3cc(-c4cnn(C)c4)ccn23)cc(OC)c1C(=O)N1CCC(F)(F)CC1` [compound 212, (4,4-difluoro-1-piperidyl)-[2,6-dimethoxy-4-[7-(1-methylpyrazol-4-yl)imidazo[1,2-a]pyridin-3-yl]phenyl]methanone], the values for the IC50 in assay [1], in assay [2] and in assay [3] were 100 to 500 nM, 10 to 100 nM and 100 to 500 nM, respectively.
For `COc1cc(-n2cnc3cc(-c4cnn(C)c4)ccc32)cc(OC)c1C(=O)N1CC(C)(O)C1` [compound 217, [2,6-dimethoxy-4-[5-(1-methylpyrazol-4-yl)benzimidazol-1-yl]phenyl]-(3-hydroxy-3-methyl-azetidin-1-yl)methanone], the IC50 in assay [1], in assay [2] and in assay [3] was 10 to 100 nM throughout.
`CCC1(O)CN(C(=O)c2c(OC)cc(-n3cnc4cc(-c5cnn(C)c5)ccc43)cc2OC)C1` [compound 218, [2,6-dimethoxy-4-[5-(1-methylpyrazol-4-yl)benzimidazol-1-yl]phenyl]-(3-ethyl-3-hydroxy-azetidin-1-yl)methanone]: the IC50 in assay [1] lay in the range of 10 to 100 nM; in assay [2], 10 to 100 nM; in assay [3], 100 to 500 nM.

(Values after patent US12065443B2, “Compounds and pharmaceutical compositions thereof for the treatment of diseases” (priority 2017, dated 2024).)
